Test results from patent publication US20240099996A1, “METHODS FOR TREATING CANCER” (Radius Pharmaceuticals, Inc., priority 2015, published 2024).
Structures can show the parent of a compound that is named as a salt.

Target: T1, ER (Homo sapiens, UniProt P03372)
T1 sequence (P03372 1-595): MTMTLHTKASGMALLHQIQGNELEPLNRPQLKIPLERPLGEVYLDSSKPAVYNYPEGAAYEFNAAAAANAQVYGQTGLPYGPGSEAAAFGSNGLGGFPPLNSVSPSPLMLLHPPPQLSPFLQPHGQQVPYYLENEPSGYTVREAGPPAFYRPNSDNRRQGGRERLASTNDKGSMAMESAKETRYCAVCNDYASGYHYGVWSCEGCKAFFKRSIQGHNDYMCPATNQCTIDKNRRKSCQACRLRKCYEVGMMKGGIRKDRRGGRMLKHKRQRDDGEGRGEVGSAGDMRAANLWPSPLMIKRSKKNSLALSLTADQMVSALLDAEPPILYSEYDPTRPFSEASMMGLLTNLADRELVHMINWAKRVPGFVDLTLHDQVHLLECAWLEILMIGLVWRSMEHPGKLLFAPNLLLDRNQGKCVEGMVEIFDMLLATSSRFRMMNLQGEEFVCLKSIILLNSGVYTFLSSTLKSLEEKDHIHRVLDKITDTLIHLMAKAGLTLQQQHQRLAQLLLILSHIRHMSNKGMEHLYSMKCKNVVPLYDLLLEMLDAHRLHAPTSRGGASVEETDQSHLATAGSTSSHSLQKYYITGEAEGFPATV
Assay: ER expression and ER target genes in MCF-7 cell line
Assay type: cell-based
Conditions: 0.01, 0.1, 1 μM
Protocol: MCF-7 cells (human mammary metastatic adenocarcinoma) were purchased from American Type Culture Collection (Rockville, MD) and were routinely maintained in phenol red-free minimal essential medium (MEM) containing 2 mM L-glutamine and Earle's BSS, 0.1 mM non-essential amino acids and 1 mM sodium pyruvate supplemented with 0.01 mg/ml bovine insulin and 10% fetal bovine serum (Invitrogen, Carlsbad, CA), at 5% CO2.
Cells were harvested and protein expression was analyzed using standard practice. Tumors were harvested at the indicated time points after the last day of dosing, homogenized in RIPA buffer with protease and phosphatase inhibitors using a Tissuelyser (Qiagen). Equal amounts of protein were separated by MW, transferred to nitrocellulose membranes and blotted with the following antibodies using standard practice: • Estrogen receptor (SantaCruz (HC-20); sc-543) • Progesterone receptor (Cell Signaling Technologies; 3153) • Vinculin (Sigma-Aldrich, v9131)
qPCR analyses were performed as follows: Cells were harvested, mRNA was extracted, and equal amounts used for cDNA synthesis and qPCR with primers specific for progesterone receptor, GREB1, and TFF1 (LifeTech). Bands were quantified using 1D Quant software (GE).
Three ER target genes, progesterone receptor (PgR), growth regulation by estrogen in breast cancer 1 (GREB1) and trefoil factor 1 (TFF1), were used as markers.

In the case of `CCNCCc1ccc(CN(CC)c2cc(OC)ccc2[C@@H]2CCc3cc(O)ccc3C2)cc1` [RAD1901, (6R)-6-(2-(N-(4-(2-(ethylamino)ethyl)benzyl)-N-ethylamino)-4-methoxyphenyl)-5,6,7,8-tetrahydronaphthalen-2-ol dihydrochloride], the “ER degradation and ER signaling (PgR, GREB1, TFF1)” value is reported as “caused ER degradation and inhibited ER signaling”.
